Tests used:
Assay type in all cases: functional
[1] = test system: Rattus norvegicus; assay: Antihyperglycemic activity in streptozotocin-induced diabetic Sprague-Dawley rat model assessed as glucose tolerance at 100 mg/kg, po administered 30 mins before sucrose-load
[2] = test system: Mus musculus; assay: Antihyperglycemic activity in diabetic C57BL/KsJ-db/db mouse model assessed as decrease in low-density lipoprotein cholesterol at 50 mg/kg, po for 10 days relative to control; parameters: scale not given: the % may be the effect or the level left
[3] = test system: Mus musculus; assay: Antihyperglycemic activity in diabetic C57BL/KsJ-db/db mouse model assessed as increase in high-density lipoprotein cholesterol at 50 mg/kg, po for 10 days relative to control
[4] = test system: Mus musculus; assay: Antihyperglycemic activity in diabetic C57BL/KsJ-db/db mouse model assessed as improvement in glucose tolerance at 50 mg/kg, po for 10 days relative to control by OGTT
[5] = test system: Mus musculus; assay: Antihyperglycemic activity in diabetic C57BL/KsJ-db/db mouse model assessed as decrease in postprandial blood glucose level at 50 mg/kg, po for 10 days relative to control; parameters: scale not given: the % may be the effect or the level left
[6] = test system: Mus musculus; assay: Antihyperglycemic activity in diabetic C57BL/KsJ-db/db mouse model assessed as decrease in total cholesterol at 50 mg/kg, po for 10 days relative to control; parameters: scale not given: the % may be the effect or the level left
[7] = test system: Rattus norvegicus; assay: Antihyperglycemic activity in Sprague-Dawley normoglycemic rat model assessed as glucose tolerance at 100 mg/kg, po administered 30 mins before sucrose-load
[8] = test system: Mus musculus; assay: Antihyperglycemic activity in diabetic C57BL/KsJ-db/db mouse model assessed as decrease in blood glucose AUC at 50 mg/kg, po for 10 days relative to control; parameters: scale not given: the % may be the effect or the level left
[9] = test system: Mus musculus; assay: Antihyperglycemic activity in po dosed diabetic C57BL/KsJ-db/db mouse model assessed as decrease in postprandial blood glucose level for 10 days; conditions: 240 h
[10] = test system: Mus musculus; assay: Antihyperglycemic activity in diabetic C57BL/KsJ-db/db mouse model assessed as decrease in very low-density lipoprotein cholesterol at 50 mg/kg, po for 10 days relative to control; parameters: scale not given: the % may be the effect or the level left
[11] = test system: Mus musculus; assay: Antihyperglycemic activity in diabetic C57BL/KsJ-db/db mouse model assessed as decrease in plasma triglyceride level at 50 mg/kg, po for 10 days relative to control; parameters: scale not given: the % may be the effect or the level left

Row | SMILES | Activity [1] [%] | Activity [2] [%] | Activity [3] [%] | Activity [4] [%] | Activity [5] [%] | Activity [6] [%] | Activity [7] [%] | Activity [8] [%] | ED50 [9] [mg/kg] | Activity [10] [%] | Activity [11] [%]
1 | CC1=C(C)C(=O)O[C@@H]([C@](C)(O)[C@]2(O)CC[C@@]3(O)[C@@H]4CC=C5C[C@@H](O[C@@H]6O[C@H](CO)[C@@H](O)[C@H](O)[C@H]6O)CC(=O)[C@]5(C)[C@H]4CC[C@]23C)C1 | 23.3 | 21.2 | 24.7 | 44.1 | 22.7 | 25.7 | 29.8 | 40.5 | 25 | 15.6 | 14.7
2 | CC1=C(C)C(=O)O[C@@H]([C@](C)(O)[C@]2(O)CC[C@@]3(O)[C@@H]4CC=C5C=CCC(=O)[C@]5(C)[C@H]4CC[C@]23C)C1 | 15.8 |  |  |  |  |  | 20.4 |  |  |  | 
3 | CC1=C(C)C(=O)O[C@@H]([C@](C)(O)[C@]2(O)C[C@H](O)[C@@]3(O)[C@@H]4CC=C5CC=CC(=O)[C@]5(C)[C@H]4CC[C@@]32C)C1 [COAGULANOLIDE] | 14.7 |  |  |  |  |  | 28.1 |  |  |  | 
4 | CC1=C(C)C(=O)O[C@@H]([C@]2(C)O[C@@]34CC[C@]2(O)[C@@]3(C)CC[C@H]2[C@H]4CC=C3CC=CC(=O)[C@@]32C)C1 [COAGULIN C] | 16.9 |  |  |  |  |  | 22.8 |  |  |  | 
5 | CC(C)OC(=O)C(C)(C)Oc1ccc(C(=O)c2ccc(Cl)cc2)cc1 [FENOFIBRATE] |  | 24.5 | 12.4 |  |  | 30.8 |  |  |  | 21.6 | 16.2
6 | CN(C)C(=N)NC(=N)N [METFORMIN] | 17.1 |  |  | 24.8 | 18.6 |  | 26.4 | 24.8 |  |  | 
7 | CC1=C(C)C(=O)O[C@@H]([C@](C)(O)[C@]2(O)CC[C@@]3(O)[C@@H]4CC=C5CC=CC(=O)[C@]5(C)[C@H]4CC[C@]23C)C1 [WITHANOLIDE F] | 18.2 |  |  |  |  |  | 24.9 |  |  |  | 

Reference: ChEMBL document CHEMBL1152162, “Coagulanolide, a withanolide from Withania coagulans fruits and antihyperglycemic activity” (2008)
